According to patent US20260007760A1, “CAMPTOTHECIN DERIVATIVES THAT BIND TO DDX5 PROTEIN AND PRODRUGS THEREOF” (priority 2022, published 2026):

How the values were obtained:
[1] = Lactone to carboxylate form conversion in pH 7.4 (RP-HPLC); format: physicochemical; conditions: for Conversion from lactone form (active) to carboxylate form (inactive) compared with reference compounds: pH 7.4, references exatecan, DXd, SN-38, FL118
cancer cells = conditions: cited from earlier work
[2] = over 21 days; bioconjugated to anti-HER2 antibody, DAR 8; cited from earlier work
[3] = system: Survivin, cIAP2, Mcl-1, XIAP; assay: Western blot, expression inhibition of anti-apoptotic proteins in FaDu cell line; format: cell-based; conditions: Western blot, 0, 10, 100 nM, 24 hours
DDX5 = DDX5 (Homo sapiens, UniProt P17844); assay: Western blot, DDX5 degradation in two cell lines (FaDu, A549); conditions: FaDu and A549, 0, 10, 100 nM
DDX5, sequence (P17844 whole entry): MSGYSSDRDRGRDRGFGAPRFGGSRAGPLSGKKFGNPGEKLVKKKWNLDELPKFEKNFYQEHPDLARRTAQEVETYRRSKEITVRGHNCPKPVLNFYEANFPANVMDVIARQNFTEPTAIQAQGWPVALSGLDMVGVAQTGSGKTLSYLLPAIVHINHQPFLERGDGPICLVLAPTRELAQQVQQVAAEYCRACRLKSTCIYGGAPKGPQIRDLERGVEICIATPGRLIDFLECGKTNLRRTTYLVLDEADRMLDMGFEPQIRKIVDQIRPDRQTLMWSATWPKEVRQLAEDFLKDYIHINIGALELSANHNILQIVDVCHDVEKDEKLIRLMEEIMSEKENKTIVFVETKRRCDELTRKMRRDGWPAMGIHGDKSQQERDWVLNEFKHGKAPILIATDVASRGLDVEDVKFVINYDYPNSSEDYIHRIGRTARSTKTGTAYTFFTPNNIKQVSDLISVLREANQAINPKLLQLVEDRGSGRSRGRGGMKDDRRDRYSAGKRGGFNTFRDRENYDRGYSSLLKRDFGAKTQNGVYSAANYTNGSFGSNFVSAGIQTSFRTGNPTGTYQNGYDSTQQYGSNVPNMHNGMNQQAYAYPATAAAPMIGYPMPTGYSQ

[4] = mouse, in vivo, ip
[5] = system: MDA-MB-453 (HER2++) cell line; assay: Cell viability assay (CellTiter-Glo), MDA-MB-453 cell line; conditions: MDA-MB-453 and FaDu cell lines, 3 days
[6] = system: FaDu (Trop2+++) cell lines and Calu-6 (Trop2−−) cell lines; assay: In vitro cell cytotoxicity test of Sacituzumab-25-6 (6 days); conditions: free payload
FaDu cell line = assay: Cell viability assay (CellTiter-Glo), FaDu cell line; format: cell-based; conditions: FaDu (does not express ABCG2), 3-day incubation
Experimental: After 24 hours, the cells were treated with 100 μl of drugs at 9 concentrations (serial dilutions of 1/5 each from 1,000 nM). […] Also, a control group (drug concentration 0) that was not treated with drugs was prepared. Incubation at constant temperature (37° C., 5% CO2) was performed for 3 or 6 days. 100 ul of CellTiter-Glo reagent (using CellTiter-Glo® Luminescent Cell Viability Assay kit (Promega, G7571)) was added to each well and pipetted. After incubating at constant temperature (RT) for 10 minutes, luminescence was measured.
Cell viability assays were performed on MDA-MB-453 (HER2++) cell lines and FaDu (HER2+) cell lines using the same method as Example 2-2.

[7] = days 1 and 8 of a 21-day cycle, 25 patients; cited from earlier work
[8] = human, in vivo; cited from earlier work

CC[C@@]1(O)C(=O)OCc2c1cc1n(c2=O)Cc2c-1nc1cc(F)c(C)c3c1c2[C@@H](NC(=O)CO)CC3 [Dxd]
Degree of formation of the carboxylate form ([1]; pH 7.4, 37° C.): about 76.5% | Rate of conversion from the lactone form to the carboxylate form ([1]; pH 7.4, 37° C.): 0.6 % per minute | Activity in cancer cells relative to SN-38 (cancer cells): 10 times | Released in plasma [2]: 2.1%

CC[C@@]1(O)C(=O)OCc2c1cc1n(c2=O)Cc2c-1nc1cc(F)c(C)c3c1c2[C@@H](N)CC3 [Exatecan]
Expression of anti-apoptotic proteins (Survivin, cIAP2, Mcl-1, XIAP) [3]: strongly inhibits the expression of anti-apoptotic proteins

CC[C@@]1(O)C(=O)OCc2c1cc1n(c2=O)Cc2cc3cc4c(cc3nc2-1)OCO4 [FL118]
Expression of anti-apoptotic proteins (Survivin, cIAP2, Mcl-1, XIAP) [3]: strongly inhibiting the expression of anti-apoptotic proteins | Cytotoxicity relative to SN-38 (times more potent) (cancer cells; various cancer cell lines): 5-10 times | DDX5 degradation (DDX5): superior to other substances in DDX5 degradation

CC[C@@]1(O)C(=O)OCc2c1cc1n(c2=O)Cc2c-1nc1cc3c(c4c1c2[C@@H](N)CC4)OCO3 [PBX-7011, (1S,10S)-1-amino-10-ethyl-10-hydroxy-1,2,3,10,13,16-hexahydro-11H,14H-benzo[de][1,3]dioxolo[4,5-g]pyrano[3′,4′:6,7]indolizino[1,2-b]quinoline-11,14-dione]
Expression of anti-apoptotic proteins (Survivin, cIAP2, Mcl-1, XIAP) [3]: decrease in the expression of Survivin, cIAP2, Mcl-1, and XIAP as the concentration increased

CC[C@@]1(O)C(=O)OCc2c1cc1n(c2=O)Cc2c-1nc1cc3c(c4c1c2[C@@H](NC(=O)CO)CC4)OCO3 [PBX-7014]
Expression of anti-apoptotic proteins (Survivin, cIAP2, Mcl-1, XIAP) [3]: decrease in the expression of Survivin, cIAP2, Mcl-1, and XIAP as the concentration increased | Rate of conversion from the lactone form to the carboxylate form ([1]; pH 7.4, 37° C.): 0.8 % per minute | Conversion from lactone form (active) to carboxylate form (inactive) compared with reference compounds [1]: more rapidly and at a higher rate than other reference compounds

CC[C@@]1(O)C(=O)OCc2c1cc1n(c2=O)Cc2c-1nc1cc3c(c4c1c2[C@@H](NC(=O)[C@@H](C)O)CC4)OCO3 [PBX-7016]
Expression of anti-apoptotic proteins (Survivin, cIAP2, Mcl-1, XIAP) [3]: decrease in the expression of Survivin, cIAP2, Mcl-1, and XIAP as the concentration increased | Rate of conversion from the lactone form to the carboxylate form ([1]; pH 7.4, 37° C.): 0.8 % per minute | Conversion from lactone form (active) to carboxylate form (inactive) compared with reference compounds [1]: more rapidly and at a higher rate than other reference compounds | Clearance from the blood [4]: cleared from the blood very quickly | IC50 level compared with Dxd [5]: equivalent to or higher than Dxd | Cell membrane penetration of non-target cells / cell death [6]: can penetrate the cell membrane of non-target cells | DDX5 degradation (DDX5): inhibited DDX5 in a concentration-dependent manner

CC[C@@]1(O)C(=O)OCc2c1cc1n(c2=O)Cc2c-1nc1cc3c(c4c1c2[C@@H](NC(=O)[C@@H](O)C1CC1)CC4)OCO3 [PBX-7024]
Cell killing efficacy (IC50) (FaDu cell line): strong cell killing efficacy | Conversion from lactone form (active) to carboxylate form (inactive) compared with reference compounds [1]: more rapidly and at a higher rate than other reference compounds

CCc1c2c(nc3ccc(O)cc13)-c1cc3c(c(=O)n1C2)COC(=O)[C@]3(O)CC [SN-38]
IC50 values (cancer cells; several cell lines): nanomolar range

sacituzumab govitecan
Dose-limiting toxicity [7]: neutropenia | Diarrhea, all-grade [8]: 65% | Febrile neutropenia [8]: 7% | Neutropenia, Grade≥3 [8]: 47% | Neutropenia, all-grade [8]: 61% | Neutropenic colitis [8]: 0.5%
